Among the data in ChEMBL document CHEMBL1139966, “ERbeta ligands. Part 6: 6H-Chromeno[4,3-b]quinolines as a new series of estrogen receptor beta-selective ligands” (Bioorg Med Chem Lett, 2007) are Ratio IC50 values, retold here.

This experiment is filed under the species Homo sapiens. Put plainly: Selectivity for human ERalpha over ERbeta.

As for `Oc1ccc(-c2cc(Cl)c3cc(O)ccc3n2)cc1`, the Ratio IC50 amounted to 46. Next, `N#Cc1c2c(nc3ccc(O)cc13)-c1ccc(O)cc1OC2`: 16. Next, `C=Cc1c2c(nc3ccc(O)cc13)-c1ccc(O)cc1OC2`: 24.

In the case of `N#Cc1cccc(-c2c3c(nc4ccc(O)cc24)-c2ccc(O)cc2OC3)c1`, the Ratio IC50 is 8.

Turning to `Oc1ccc2c(c1)OCc1c-2nc2ccc(O)cc2c1Cl`, the Ratio IC50 stood at 27. Next, `COc1cccc(-c2c3c(nc4ccc(O)cc24)-c2ccc(O)cc2OC3)c1`: 10; `C#Cc1cc(-c2ccc(O)cc2)nc2ccc(O)cc12`: 20; `CCc1cc(-c2ccc(O)cc2)nc2ccc(O)cc12`: 12. In the case of `Oc1ccc2c(c1)OCc1c-2nc2ccc(O)cc2c1-c1ccc(C(F)(F)F)cc1`, the Ratio IC50 stood at 16.

`CCc1c2c(nc3ccc(O)cc13)-c1ccc(O)cc1OC2`: the Ratio IC50 is 14. For the molecule `COc1ccc(-c2c3c(nc4ccc(O)cc24)-c2ccc(O)cc2OC3)cc1`, the Ratio IC50 was 6. Next, `Oc1ccc2c(c1)OCc1c-2nc2ccc(O)cc2c1-c1ccc(Cl)cc1`: 15. Next, `N#Cc1ccc(-c2c3c(nc4ccc(O)cc24)-c2ccc(O)cc2OC3)cc1`: 16; `Oc1ccc2c(c1)OCc1c-2nc2ccc(O)cc2c1Br`: 16; `C#Cc1c2c(nc3ccc(O)cc13)-c1ccc(O)cc1OC2`: 12.

`Oc1ccc2c(c1)OCc1c-2nc2ccc(O)cc2c1-c1cccc(Cl)c1`: the Ratio IC50 was determined as 4.
